A short description of data set [1]: In vitro drug metabolism in rat liver extract. It counts as in vitro ADME, male Wistar rats. The following applies: pH 7.4, 37° C.; for remaining at 5 min / remaining at 0.25 h / remaining at 0.5 h / remaining at 1 h: rat liver extract; for remaining at 5 min: read-out: Residual amount of test compound, 5 min.; for remaining at 0.25 h: 15 min., read-out: Residual amount of test compound, 15 min.; for remaining at 0.5 h: 30 min., read-out: Residual amount of test compound, 30 min.; for remaining at 1 h: 60 min., read-out: Residual amount of test compound, 60 min.; for half-life: half-life in the rat liver extract, read-out: Half-time period. The procedure: 2. In vitro drug metabolism in rat liver extract
The resistance of the compound against metabolic degradation by rat liver extract was investigated.
The male Wistar rats (weighing about 200 g) were used after fasting for 24 hours. The rat was sacrificed under ether anesthesia, and the livers were removed and were placed onto the ice.
The liver was minced with scissors under ice-cooling, and homogenized in the presence of 4 volumes of 1.15% KCl-0.1M phosphate buffer (pH 7.4) with a Potter type homogenizer. The homogenates were centrifuged at 9,000×g for 10 minutes at 4° C., and the supernatant filtered through the cheese-cloth was used as an enzyme solution.
The constitution of the reaction mixture was shown in below. 0.1M Buffer was sufficiently bubbled in 95% O2 -5% CO2 gas before use.
Glucose 6-phosphate (60.8 mg.ml)
Nicotineamide (9.16 mg/ml)
The tested samples were dissolved in dimethyl sulfoxide. MgCl2 ·6H2 O was dissolved in a distilled water, and all other reagents were dissolved in 0.1M phosphate buffer. The reaction was initiated by adding enzyme solution, and shaked at 37° C. with 120 cycles/minutes in Spitz test tubes with stoppers. The reaction was stopped by adding methanol after 5, 15, 30 and 60 minutes.
After termination of the reaction, samples were mixed by using of a Vortex mixer, and centrifuged at 3,000 rpm for 10 minutes. The supernatant was applied to a high-performance liquid chromatography of which conditons are shown in below. A residual amount of the mother compound was determined at certain time intervals, whererby half-life of the compound in the rat liver extract was calculated.
Column: Chemcosorb 5C18-300 Å 4.6 mm diameter and 150 mm length
Colume temperature: 50° C.

The target in data set [2] is T1, rat prostate androgen receptor (Rattus norvegicus, UniProt P15207).
T1 sequence (P15207 1-902): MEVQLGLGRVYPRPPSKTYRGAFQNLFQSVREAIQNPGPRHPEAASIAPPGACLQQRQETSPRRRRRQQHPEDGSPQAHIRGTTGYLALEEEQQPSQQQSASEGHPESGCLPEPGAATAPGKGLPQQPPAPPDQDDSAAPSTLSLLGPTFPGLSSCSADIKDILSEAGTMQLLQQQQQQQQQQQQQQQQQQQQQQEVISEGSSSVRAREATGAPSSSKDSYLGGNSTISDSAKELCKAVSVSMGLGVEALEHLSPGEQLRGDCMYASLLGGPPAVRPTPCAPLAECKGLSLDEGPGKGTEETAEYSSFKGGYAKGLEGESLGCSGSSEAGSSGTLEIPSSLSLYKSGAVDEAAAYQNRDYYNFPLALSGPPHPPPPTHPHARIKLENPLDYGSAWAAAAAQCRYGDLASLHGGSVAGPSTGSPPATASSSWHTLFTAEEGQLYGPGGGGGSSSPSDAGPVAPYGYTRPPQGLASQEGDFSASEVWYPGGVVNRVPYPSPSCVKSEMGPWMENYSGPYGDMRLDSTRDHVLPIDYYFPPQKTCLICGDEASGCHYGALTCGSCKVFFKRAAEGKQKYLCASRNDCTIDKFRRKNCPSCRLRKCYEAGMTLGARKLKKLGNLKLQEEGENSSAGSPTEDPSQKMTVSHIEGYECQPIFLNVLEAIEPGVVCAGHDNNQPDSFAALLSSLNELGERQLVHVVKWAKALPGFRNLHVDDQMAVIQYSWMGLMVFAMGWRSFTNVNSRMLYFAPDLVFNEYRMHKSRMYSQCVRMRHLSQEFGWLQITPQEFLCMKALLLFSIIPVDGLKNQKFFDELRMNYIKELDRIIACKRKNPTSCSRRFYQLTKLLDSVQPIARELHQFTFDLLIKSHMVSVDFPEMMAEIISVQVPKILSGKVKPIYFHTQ
Conditions: 1 nM ^3 H-mibolerone, 20 hours at 0° C., rat ventral prostate cytosol; read-out: Inhibitory activity on mibolerone specific binding [IC50 (M)].
Experimental: Assay of inhibitory activity to binding of ^3 H-mibolerone on rat prostate androgen receptor
(1) Preparation of Cytosol from Rat Prostate
The rats were killed 24 hours after castration, and the ventral prostate glands were removed, and was gently homogenized, with three volume of buffer solution A (1.5 mM EDTA, 2 mM dithiothreitol, 10 mM molybdate sodium, 10% by volume of glycerol, 10 mM NaF, 25 mM phosphate sodium, pH 7.2) on ice-water bath, in Polytron, and Potter type homogenizer. The obtained homogenate was filtrated through double gauze, and centrifuged at 105,000×g for 60 minutes at 4° C., and the supernatant was obtained as cytoplasm fraction.
(2) Measurement of Specific binding of ^3 H-mibolerone to Prostate Cytoplasm Androgen Receptor
To the cytoplasm fraction obtained in (1) was added ^3 H-mibolerone (87.0 Ci/millimol), so that a final concentration is adjusted to 1 nM, and at the same time, in order to block binding of ^3 H-mibolerone to progestin receptor, triamsinolone acetonide was added to a final concentration of 5 μM, and the final volume was adjusted to 0.4 ml with buffer solution A, and the reaction mixture was incubated for 20 hours at 0° C. After incubation, 0.5 ml of 60% hydroxylapatite slurry (washed and equilibrate with a buffer solution B: 10 mM NaH2 PO4, 20 mM tris-hydrochloric acid, pH 7.2) was added, and incubated for 10 minutes at 0° C., the solution was transferred onto a glass fiber filter, and washed five times with 5 ml portions of buffer solution B containing 0.1% (weight/volume) of Triton X-100, to remove free ^3 H-mibolerone. This glass fiber was transferred into vial, and 10 ml of aquasol- 2 was added, and the radioactivity was measured, and the total binding amount of ^3 H-mibolerone on prostate cytoplasm androgen receptor was determined.
The nonspecific binding amount was determined similarly by adding an unlabeled 5α-DHT in the reaction solution to a final concentration of 1 μM. The difference between the total binding amount and nonspecific binding amount was determined as the specific binding amount on the androgen receptor.
(3) Inhibitory Activity of Sample Compounds on ^3 H-mibolerone Specific Binding
The various concentrations of compounds obtained in the experiments were added simultaneously with ^3 H-mibolerone to incubate same as in (2), and the specific binding amount of ^3 H-mibolerone on androgen receptor was determined. Comparing this value with the value obtained in (2), the IC50 value of inhibitory activity of the compounds on ^3 H-mibolerone specific binding was determined.

Data on 29 molecules can be found in patent publication US5516777A, “Condensed pyrazole derivatives, and androgen inhibitor” (Otsuka Pharmaceutical Co., Ltd., priority 1992, dated 1996).

A value given as a limit tells only on which side of the number the result lay.

For `Oc1ncnc2c(-c3ccc(Sc4ccccc4)cc3)cnn12` [Compound A1, reference compound], in data set [1], the remaining at 5 min worked out at 32.3%, the remaining at 0.25 h was 13.8%, the remaining at 0.5 h worked out at 13.1% and the remaining at 1 h stood at 13%. Also, in data set [1], the half-life came out at 2.4 min.

For `Cc1cc(-c2cnn3c(O)ncnc23)ccc1Sc1ccccc1` [Compound A2, reference compound], in data set [1], the remaining at 5 min was 32.5%, the remaining at 0.25 h is 14.8%, the remaining at 0.5 h is 13.7% and the remaining at 1 h was determined as 12.3%. In addition, the half-life in data set [1] turned out to be 2.5 min.

As for `COc1cc(-c2cnn3c(O)ncnc23)ccc1Sc1ccccc1` [Compound A3, reference compound], in data set [1], the remaining at 5 min was determined as 38.3%, the remaining at 0.25 h worked out at 18.6%, the remaining at 0.5 h is 19.2% and the remaining at 1 h came out at 16.5%. The half-life in data set [1] was 3 min.

For the molecule `Cc1cc(-c2cnn3c(O)ccnc23)ccc1Sc1ccccc1` [Compound B1, reference compound], in data set [1], the remaining at 5 min came out at 46.5%, the remaining at 0.25 h amounted to 25.6%, the remaining at 0.5 h was 25.1% and the remaining at 1 h is 27%. Moreover, the half-life in data set [1] worked out at 4.6 min.

In the case of `COc1cc(-c2cnn3c(O)ccnc23)ccc1Sc1ccccc1` [Compound B2, reference compound], in data set [1], the remaining at 5 min was 54.3%, the remaining at 0.25 h was determined as 32.9%, the remaining at 0.5 h was determined as 31.4% and the remaining at 1 h is 24.4%. The half-life in data set [1] came to 6.5 min.

For orientation: IC50 means the concentration needed to halve the response being measured. Regarding `Oc1ccnc2c(-c3ccc(Cc4ccccc4)cc3)cnn12` [Example 2, 3-(4-benzylphenyl)-7-hydroxypyrazolo[1,5-a]pyrimidine], in data set [2], the IC50 came to 2.8e-07 M. Further, in data set [1], the remaining at 5 min stood at 81.3%, the remaining at 0.25 h came out at 86.1%, the remaining at 0.5 h amounted to 84.2% and the remaining at 1 h amounted to 80.2%. For the same molecule, the half-life in data set [1] is more than 60 min.

Consider `Oc1ncnc2c(-c3ccc(Cc4ccccc4)c(Cl)c3)cnn12` [Example 3, 8-(4-benzyl-3-chloro)phenyl-4-hydroxypyrazolo[1,5-a]-1,3,5-triazine], for which the IC50 in data set [2] came out at 4e-07 M.

Take `COc1cc(-c2cnn3c(O)ncnc23)ccc1Cc1ccccc1` [Example 4, 8-(4-benzyl-3-methoxy)phenyl-4-hydroxypyrazolo[1,5-a]-1,3,5-triazine]: the IC50 in data set [2] was 7.4e-08 M. In data set [1], the remaining at 5 min stood at 56.9%, the remaining at 0.25 h came out at 44.6%, the remaining at 0.5 h worked out at 49.9% and the remaining at 1 h worked out at 38.2%. Also, the half-life in data set [1] is 30 min.

As for `COc1cc(-c2cnn3c(O)ncnc23)ccc1Cc1ccccc1C` [Example 7], in data set [2], the IC50 came out at 6.2e-08 M.

In the case of `COc1cc(-c2cnn3c(O)ncnc23)ccc1Cc1ccc(C)cc1` [Example 8], in data set [2], the IC50 amounted to 1.1e-07 M.

Regarding `COc1ccccc1Cc1ccc(-c2cnn3c(O)ncnc23)cc1OC` [Example 9], the IC50 in data set [2] worked out at 9.5e-08 M.

Turning to `Cc1ccc(Cc2ccc(-c3cnn4c(O)ncnc34)cc2)cc1` [Example 16, 4-hydroxy-8-[4-(4-methylphenylmethyl)phenyl]pyrazolo[1,5-a]-1,3,5-triazine], the concentration for half-maximal inhibition (IC50) in data set [2] came to 3e-07 M.

On to `COc1ccccc1Cc1ccc(-c2cnn3c(O)ncnc23)cc1` [Example 17, 4-hydroxy-8-[4-(2-methoxyphenylmethyl)phenyl]pyrazolo[1,5-a]-1,3,5-triazine], for which the IC50 in data set [2] was found to be 8.7e-07 M.

Consider `COc1ccc(Cc2ccc(-c3cnn4c(O)ncnc34)cc2)cc1` [Example 18, 4-hydroxy-8-[4-(4-methoxyphenylmethyl)phenyl]pyrazolo[1,5-a]-1,3,5-triazine], for which, in data set [1], the remaining at 5 min came out at 96.5%, the remaining at 0.25 h amounted to 86.2%, the remaining at 0.5 h was 71.6% and the remaining at 1 h came out at 52.4%. In addition, the half-life in data set [1] was more than 60 min.

On to `CCCC(c1ccccc1)c1ccc(-c2cnn3c(O)ncnc23)cc1` (stereo not drawn) [Example 20, 4-hydroxy-8-[4-(α-propylbenzyl)phenyl]pyrazolo[1,5-a]-1,3,5-triazine], for which the IC50 in data set [2] was determined as 2e-07 M.

For the molecule `Oc1ncnc2c(-c3ccc(Cc4cccc(Cl)c4)cc3)cnn12` [Example 21, 8-[4-(3-chlorophenylmethyl)phenyl]-4-hydroxypyrazolo[1,5-a]-1,3,5-triazine], the IC50 in data set [2] was determined as 1.1e-07 M.

For `Oc1ncnc2c(-c3ccc(Cc4ccc(Cl)cc4)cc3)cnn12` [Example 22, 8-[4-(4-chlorophenylmethyl)phenyl]-4-hydroxypyrazolo[1,5-a]-1,3,5-triazine], the IC50 in data set [2] worked out at 9.3e-08 M.

`COc1cccc(C(C)c2ccc(-c3cnn4c(O)ncnc34)cc2)c1` (stereo not drawn) [Example 23, 4-hydroxy-8-{4-[1-(3-methoxyphenyl)ethan-1-yl)phenyl}pyrazolo[1,5-a]-1,3,5-triazine]: the IC50 in data set [2] was 2.6e-08 M.

In the case of `COc1cccc(Cc2ccc(-c3cnn4c(O)ccnc34)cc2OC)c1` [Example 24, 7-hydroxy-3-[3-methoxy-4-(3-methoxyphenylmethyl)phenyl]pyrazolo[1,5-a]pyrimidine], the IC50 in data set [2] turned out to be 2.6e-08 M.

As to `CC(c1ccccc1)c1ccc(-c2cnn3c(O)ccnc23)cc1` (stereo not drawn) [Example 25, 7-hydroxy-3-[4-(α-methylbenzyl)phenyl]pyrazolo[1,5-a]pyrimidine], the IC50 in data set [2] was 2.8e-08 M.

Regarding `COc1cccc(Cc2ccc(-c3cnn4c(O)ccnc34)cc2C)c1` [Example 26, 7-hydroxy-3-[4-(3-methoxyphenylmethyl)-3-methyl]phenylpyrazolo[1,5-a]pyrimidine], in data set [2], the IC50 came out at 1.3e-08 M.

Turning to `Cc1cccc(Cc2ccc(-c3cnn4c(O)ccnc34)cc2)c1` [Example 27, 7-hydroxy-3-[4-(3-methylphenylmethyl)phenyl]pyrazolo[1,5-a]pyrimidine], the IC50 in data set [2] turned out to be 8.2e-08 M.

On to `Cc1cccc(Cc2ccc(-c3cnn4c(O)ncnc34)cc2C)c1` [Example 29, 4-hydroxy-8-[3-methyl-4-(3-methylphenylmethyl)phenyl]pyrazolo[1,5-a]-1,3,5-triazine], for which, in data set [2], the IC50 is 2e-08 M.

For `Cc1cccc(Cc2ccc(-c3cnn4c(O)ccnc34)cc2C)c1` [Example 30], the IC50 in data set [2] was 2.5e-08 M.

As for `Oc1ncnc2c(-c3ccc(Cc4ccc5c(c4)OCO5)cc3)cnn12` [Example 31, 4-hydroxy-8-[4-(3,4-methylenedioxyphenylmethyl)phenyl]pyrazolo[1,5-a]-1,3,5-triazine], in data set [2], the IC50 was 7.5e-07 M.

For the molecule `COc1cc(Cc2ccc(-c3cnn4c(O)ncnc34)cc2)cc(OC)c1` [Example 32, 4-hydroxy-8-[4-(3,5-dimethoxyphenylmethyl)phenyl]pyrazolo[1,5-a]-1,3,5-triazine], the IC50 in data set [2] is 7.7e-07 M.

Take `CC(C)(c1ccccc1)c1ccc(-c2cnn3c(O)ncnc23)cc1` [Example 33, 4-hydroxy-8-[4-(2-phenylporpan-2-yl)phenyl]pyrazolo[1,5-a]-1,3,5-triazine]: the IC50 in data set [2] was 1.2e-07 M.

`CC(C)(c1ccccc1)c1ccc(-c2cnn3c(O)ccnc23)cc1` [Example 34, 7-hydroxy-3-[4-(2-phenylpropan-2-yl)phenyl]pyrazolo[1,5-a]pyrimidinie]: the IC50 in data set [2] was found to be 9e-08 M.

For the molecule `Oc1ccnc2c(-c3ccc(Cc4ccc5c(c4)OCO5)cc3)cnn12` [Example 35, 7-hydroxy-4-[4-(3,4-methylenedioxyphenylmethyl)phenyl]pyrazolo[1,5-a]pyrimidine], in data set [2], the IC50 stood at 2.2e-07 M.
